From publication PMC6855250 (Nature, 2019) come the findings set out here.

The target in this assay is SidJ∆N99-CaM (Legionella pneumophila, UniProt Q5ZTK6).

SMILES strings stand for the structures.

SidJ∆N99-CaM, sequence (Q5ZTK6 whole entry, looked up): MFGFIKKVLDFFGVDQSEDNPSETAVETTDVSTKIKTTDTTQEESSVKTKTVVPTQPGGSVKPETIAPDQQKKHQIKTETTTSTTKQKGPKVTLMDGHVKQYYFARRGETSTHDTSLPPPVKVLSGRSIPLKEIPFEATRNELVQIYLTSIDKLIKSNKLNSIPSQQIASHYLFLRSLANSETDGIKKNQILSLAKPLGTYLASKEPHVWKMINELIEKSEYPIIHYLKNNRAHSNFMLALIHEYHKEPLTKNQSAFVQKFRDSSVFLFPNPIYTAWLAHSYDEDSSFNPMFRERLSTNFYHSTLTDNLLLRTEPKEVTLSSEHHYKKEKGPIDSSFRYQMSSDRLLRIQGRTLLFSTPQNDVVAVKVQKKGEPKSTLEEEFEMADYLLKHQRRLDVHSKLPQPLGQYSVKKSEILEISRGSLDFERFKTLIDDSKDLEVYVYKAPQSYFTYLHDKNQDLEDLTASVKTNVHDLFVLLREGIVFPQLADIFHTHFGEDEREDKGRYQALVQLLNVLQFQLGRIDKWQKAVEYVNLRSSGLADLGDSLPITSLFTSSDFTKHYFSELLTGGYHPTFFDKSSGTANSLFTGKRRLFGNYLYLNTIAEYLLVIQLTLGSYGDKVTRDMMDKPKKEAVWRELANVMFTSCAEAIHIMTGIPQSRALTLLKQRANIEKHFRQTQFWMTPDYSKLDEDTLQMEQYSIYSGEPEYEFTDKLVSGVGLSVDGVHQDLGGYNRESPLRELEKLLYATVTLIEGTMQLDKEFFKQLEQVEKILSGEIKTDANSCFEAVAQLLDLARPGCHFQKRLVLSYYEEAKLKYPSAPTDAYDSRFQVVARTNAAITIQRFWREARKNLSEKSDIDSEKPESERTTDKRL

Take `Nc1ncnc2c1ncn2[C@@H]1O[C@H](COP(=O)(O)O)[C@@H](O)[C@H]1O` [AMP]: the “X-ray crystal structure, 3.11 Å” value was “We observed an AMP moiety bound in a pocket formed in the CD”.
